Data as given in patent publication US20060269928A1, “Compositions, methods and apparatus for supercritical fluid virus inactivation” (Aphios Corporation, priority 2005, published 2006).
Where “and” joins values, the source holds several entries; their conditions need not be identical. Identical values can stand only once. Like-named read-outs stand apart in the source and are kept apart here. Marks after values point to notes of the source that are not given here.

Tests used:
[1] = test system: HIV-1Δtat-rev; conditions: 3,000 psig, 22 °C, single-stage; for −Log10 Inactivation: versus time and temperature control; for Log10 TCID50/ml (CFI-treated): virus supernatant diluted 1:10 in RPMI
[2] = test system: HIV-1 p24; conditions: 3,000 psig, 22 °C, single-stage; for Δp24 [% Change]: versus t & T control
[3] = test system: encephalomyocarditis (EMC) virus; format: cell-based
[4] = test system: parvovirus B19; test: B19 DNA titre of CFI-treated plasma samples; design: species or system human parvovirus B19; conditions: 206 bars, 4 ml/min
Procedure: The conditions of different experiments performed for NIBSC, London, England with parvovirus B19-spiked in human plasma samples free of B19 antibodies are recorded in Table 16. […] Five or six samples were produced in each of the six experiments. A 2.5 ml aliquot of the feed was taken at the start of the treatment and stored at 4° C. during the run (named “before”) and a second 2.5 ml sample was placed at the same temperature as the SCoNCF system for the same duration as a control (named “time and temperature”). Once the system (isobaric chamber, connecting lines, valves and gauges) was pressurized with the supercritical fluid, the sample was pumped through the isobaric chamber at the rate of 4 ml/min. […] Finally, the system was depressurized to atmospheric pressure (1.01 bars).

[5] = test system: parvovirus B19; test: B19 infectivity assay of CFI-treated plasma samples; format: cell-based, human parvovirus B19; conditions: 206 bars; for Infectious Units per ml, CFI-Treated Samples: 4 ml/min
[6] = test system: vesicular stomatitis virus (VSV); format: cell-based; conditions: for −log10 Kill: 3,000 psig, 50 °C, single stage, matrix FBS; for −log10 reduction: 4,000 psig, <1 min
[7] = test system: Human Adenovirus, Type 5; format: cell-based
[8] = test system: Poliovirus; format: cell-based; conditions: 3,000 psig, 50 °C, single stage, matrix FBS
[9] = test system: Hepatitis A (HAV) virus; format: cell-based
[10] = test system: Reovirus; format: cell-based
[11] = test system: Sindbis; format: cell-based
[12] = test system: TGE; format: cell-based
[13] = test system: Bovine Diarrhea Virus (BVD); format: cell-based
[14] = test system: murine leukemia virus (MuLV); test: SCoNCF CFI inactivation of murine leukemia virus in laminar flow injection unit; format: cell-based, murine-C retrovirus (MuLV); conditions: 2,000 psig, 22 °C, <1 min
[15] = Expt 02/04: 25 °C, 1 stage, volumetric average of two samples
[16] = Expt 01: 50 °C, 2 stages, human plasma

N#N [N2]
−Log10 Inactivation [1]: >5.1
Log10 TCID50/ml (CFI-treated) [1]: undetected
p24 [CFI-treated] [2]: 143 ng/mL
Δp24 [% Change] [2]: +34%

CCC [C3H8, Propane]
−Log10 Inactivation [1]: 0.9
Log10 TCID50/ml (CFI-treated) [1]: 4.1
p24 [CFI-treated] [2]: 175 ng/mL
Δp24 [% Change] [2]: +20%

FC(F)F [Fr-23, trifluoromethane]
EMC inactivated on the average [3]: ~3 logs
B19 DNA Titre (IU/ml), CFI-Treated Samples [4, 15]: 2.5 × 10^10* IU/ml
Infectious Units per ml, CFI-Treated Samples [5, 15]: 1.7 × 10^6* Infectious Units per ml
−Log10 Inactivation [1]: >3.7
Log10 TCID50/ml (CFI-treated) [1]: undetected
p24 [CFI-treated] [2]: 20 ng/mL
Δp24 [% Change] [2]: +43%

O=C=O [CO2, carbon dioxide]
−Log10 Inactivation [1]: >3.7
Log10 TCID50/ml (CFI-treated) [1]: undetected
p24 [CFI-treated] [2]: 15 ng/mL
Δp24 [% Change] [2]: +7%

FC(Cl)C(F)(F)F (stereo not drawn) [Fr-124]
−log10 Kill [3]: 0.5 and 0.4

FC(F)Cl [FREON-22, hydrodifluorochloromethane]
−log10 Kill [6]: >6.5 and >6.6
−log10 Kill ([6]; listed as Freon-22): > 6.6 and > 6.5
EMC inactivated on the average [3]: ~6 logs
EMC inactivation on the average [3]: 5.7 logs
increase of inactivation for every 10 °C increase in temperature [3]: ~1 log
−log10 Kill [7]: >5.3 and >5.1
−log10 Kill [8]: 4.1 and 4.2
−log10 Kill ([8]; listed as Freon-22): 4.1 and 4.2
−log10 Kill [9]: 1.3 and 1.0
−log10 Kill [10]: 0.9 and 1.0
−log10 Kill [11]: >6.5
−log10 Kill [12]: >2.5 and >2.6
−log10 Kill [13]: 2.3
B19 DNA Titre (IU/ml), CFI-Treated Samples [4, 16]: 5 × 10^10 IU/ml
B19 DNA Titre (IU/ml), CFI-Treated Samples [4, 15]: 2 × 10^11* IU/ml
change in infectivity titer compared with the untreated sample ([5]; 50 °C, two-stage laminar flow CFI unit): ~2 log10
Infectious Units per ml, CFI-Treated Samples [5, 16]: 5 × 10^3 Infectious Units per ml
Infectious Units per ml, CFI-Treated Samples [5, 15]: 2 × 10^5* Infectious Units per ml
−Log10 Inactivation [1]: >5.1
Log10 TCID50/ml (CFI-treated) [1]: undetected
p24 [CFI-treated] [2]: 112 ng/mL
Δp24 [% Change] [2]: −7%

[N-]=[N+]=O [NITROUS OXIDE, nitrous oxide]
−log10 reduction ([14]; 1 stage): 2.3 and 2.0
−log10 reduction ([14]; 1 stage, listed as nitrous oxide): about 2
−log10 reduction ([14]; 2 stages): >5.5
−log10 reduction ([14]; 2 stages, listed as nitrous oxide): greater than 5.5
−log10 reduction ([6]; 40 °C, 1 stage): 2.5
−log10 reduction ([6]; 40 °C, 2 stages): >5.5
inactivation ([6]; 5,000 psig, 22 °C): ~2 logs
average inactivation ([6]; 5,000 psig, 40 °C): 4 logs
−Log10 Inactivation [1]: >2.8
Log10 TCID50/ml (CFI-treated) [1]: undetected
p24 [CFI-treated] [2]: 70 ng/mL
Δp24 [% Change] [2]: +25%
